Molecules are shown by their SMILES.

The nature of data set [1]: AUC in mice at 50 mg/kg after 4 hrs. In kind it is ADME, organism-based. Set-up: time < 4 hr, dose 50 mg/kg. As to conditions: mouse, plasma.
A further data set deals with Cytochrome P450 3A4 (Homo sapiens, UniProt P08684). Briefly: Inhibitory activity against CYP3A4.
Data set [2] can be described thus: Cmax in mice at 50 mg/kg after 4 hrs. In kind it is ADME, organism-based. Set-up: dose 50 mg/kg. As to conditions: mouse, in vivo.
The target in data set [3] is Voltage-gated inwardly rectifying potassium channel KCNH2 (Homo sapiens, UniProt Q12809). Briefly: Inhibitory activity against hERG by patch-clamp assay. It is filed as functional.
Another data set deals with hERG (Homo sapiens, UniProt Q12809). Briefly: Inhibitory activity against hERG by patch-clamp assay at 1 uM. In kind it is functional. (In general: Block of hERG is tested as a sign of cardiac risk.)
Data set [4] in a line: Cmax in rat at 100 mg/kg as micronized suspension after 24 hrs. In kind it is ADME, organism-based. Set-up: dose 100 mg/kg. The settings on record: in vivo.
In data set [5] the test system is H3396. Kind of data set: Antitumor activity against H3396 cell xenografted in athymic mice at 90 mg/kg. It is filed as functional, Homo sapiens.
Data set [6] can be described thus: Half life in BALB/c mouse at 60 mg/kg, po after 24 hrs. In kind it is ADME, organism-based. Set-up: dose 60 mg/kg, route oral. The settings on record: in vivo.
Data set [7] is described as follows: Oral bioavailability in BALB/c mouse at 60 mg/kg, po after 24 hrs. It is filed as ADME, organism-based. As to conditions: in vivo.
A short description of data set [8]: Systemic clearance in BALB/c mouse at 10 mg/kg, iv after 24 hrs. The settings on record: in vivo. Set-up: dose 10 mg/kg, route intravenous. It is filed as ADME, organism-based.
Data set [9] can be described thus: AUC in BALB/c mouse at 10 mg/kg, iv after 24 hrs. In kind it is ADME, organism-based. Set-up: time < 24 hr, dose 10 mg/kg, route intravenous. As to conditions: plasma.
The nature of data set [10]: AUC in rat at 200 mg/kg as micronized suspension after 24 hrs. It is filed as ADME, organism-based. Set-up: time < 24 hr, dose 200 mg/kg. As to conditions: plasma.
Data set [11] is described as follows: Mean residence time in BALB/c mouse at 10 mg/kg, iv after 24 hrs. It is filed as ADME, organism-based. Set-up: dose 10 mg/kg, route intravenous. The settings on record: in vivo.
The nature of data set [12]: AUC in rat at 25 mg/kg as micronized suspension after 24 hrs. In kind it is ADME, organism-based. Set-up: time < 24 hr, dose 25 mg/kg. As to conditions: plasma.
Data set [13] is described as follows: AUC in rat at 25 mg/kg as solution after 24 hrs. It is filed as ADME, organism-based. Set-up: time < 24 hr, dose 25 mg/kg. The settings on record: plasma.
Data set [14] is described as follows: Tmax in male BALB/c mice. In kind it is ADME, organism-based. The settings on record: mouse, in vivo.
Data set [15] is described as follows: Cmax in rat at 200 mg/kg as micronized suspension after 24 hrs. It is filed as ADME, organism-based. Set-up: dose 200 mg/kg. The settings on record: in vivo.
The nature of data set [16]: Half life in BALB/c mouse at 10 mg/kg, iv after 24 hrs. It is filed as ADME, organism-based. Set-up: dose 10 mg/kg, route intravenous. As to conditions: in vivo.
Data set [17] can be described thus: AUC in BALB/c mouse at 60 mg/kg, po after 24 hrs. It is filed as ADME, organism-based. Set-up: time < 24 hr, dose 60 mg/kg, route oral. The settings on record: plasma.
Data set [18] in a line: Volume of distribution in BALB/c mouse at 10 mg/kg, iv after 24 hrs. In kind it is ADME, organism-based. The settings on record: in vivo, read-out: Vss. Set-up: dose 10 mg/kg, route intravenous.
The target in data set [19] is Vascular endothelial growth factor receptor 2 (Mus musculus, UniProt P35918). Briefly: Inhibitory activity against Flk1.
Data set [20] relates to H3396. Briefly: Antitumor activity against H3396 cell xenografted in athymic mice at 60 mg/kg. It is filed as functional, Homo sapiens.
The nature of data set [21]: Cmax in rat at 25 mg/kg as micronized suspension after 24 hrs. The settings on record: in vivo. Set-up: dose 25 mg/kg. It is filed as ADME, organism-based.
Data set [22] can be described thus: AUC in rat at 100 mg/kg as micronized suspension after 24 hrs. In kind it is ADME, organism-based. Set-up: time < 24 hr, dose 100 mg/kg. The settings on record: plasma.
The nature of data set [23]: Cmax in rat at 25 mg/kg as solution after 24 hrs. Set-up: dose 25 mg/kg. As to conditions: in vivo. In kind it is ADME, organism-based.

Chain of Cytochrome P450 3A4 (P08684 whole entry): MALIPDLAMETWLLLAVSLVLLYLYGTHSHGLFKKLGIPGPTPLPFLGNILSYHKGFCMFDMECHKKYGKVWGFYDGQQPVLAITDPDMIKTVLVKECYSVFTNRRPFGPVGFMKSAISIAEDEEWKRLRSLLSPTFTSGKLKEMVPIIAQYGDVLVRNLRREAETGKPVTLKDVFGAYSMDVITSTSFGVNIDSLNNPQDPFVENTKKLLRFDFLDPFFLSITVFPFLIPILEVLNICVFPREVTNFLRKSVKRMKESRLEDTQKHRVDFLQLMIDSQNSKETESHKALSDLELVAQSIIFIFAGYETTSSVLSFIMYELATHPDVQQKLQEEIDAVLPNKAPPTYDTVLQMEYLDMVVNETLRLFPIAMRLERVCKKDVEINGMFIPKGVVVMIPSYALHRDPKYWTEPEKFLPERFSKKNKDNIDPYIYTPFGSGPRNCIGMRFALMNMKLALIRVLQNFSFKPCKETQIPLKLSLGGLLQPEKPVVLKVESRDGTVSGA
Chain of Voltage-gated inwardly rectifying potassium channel KCNH2 (Q12809 whole entry): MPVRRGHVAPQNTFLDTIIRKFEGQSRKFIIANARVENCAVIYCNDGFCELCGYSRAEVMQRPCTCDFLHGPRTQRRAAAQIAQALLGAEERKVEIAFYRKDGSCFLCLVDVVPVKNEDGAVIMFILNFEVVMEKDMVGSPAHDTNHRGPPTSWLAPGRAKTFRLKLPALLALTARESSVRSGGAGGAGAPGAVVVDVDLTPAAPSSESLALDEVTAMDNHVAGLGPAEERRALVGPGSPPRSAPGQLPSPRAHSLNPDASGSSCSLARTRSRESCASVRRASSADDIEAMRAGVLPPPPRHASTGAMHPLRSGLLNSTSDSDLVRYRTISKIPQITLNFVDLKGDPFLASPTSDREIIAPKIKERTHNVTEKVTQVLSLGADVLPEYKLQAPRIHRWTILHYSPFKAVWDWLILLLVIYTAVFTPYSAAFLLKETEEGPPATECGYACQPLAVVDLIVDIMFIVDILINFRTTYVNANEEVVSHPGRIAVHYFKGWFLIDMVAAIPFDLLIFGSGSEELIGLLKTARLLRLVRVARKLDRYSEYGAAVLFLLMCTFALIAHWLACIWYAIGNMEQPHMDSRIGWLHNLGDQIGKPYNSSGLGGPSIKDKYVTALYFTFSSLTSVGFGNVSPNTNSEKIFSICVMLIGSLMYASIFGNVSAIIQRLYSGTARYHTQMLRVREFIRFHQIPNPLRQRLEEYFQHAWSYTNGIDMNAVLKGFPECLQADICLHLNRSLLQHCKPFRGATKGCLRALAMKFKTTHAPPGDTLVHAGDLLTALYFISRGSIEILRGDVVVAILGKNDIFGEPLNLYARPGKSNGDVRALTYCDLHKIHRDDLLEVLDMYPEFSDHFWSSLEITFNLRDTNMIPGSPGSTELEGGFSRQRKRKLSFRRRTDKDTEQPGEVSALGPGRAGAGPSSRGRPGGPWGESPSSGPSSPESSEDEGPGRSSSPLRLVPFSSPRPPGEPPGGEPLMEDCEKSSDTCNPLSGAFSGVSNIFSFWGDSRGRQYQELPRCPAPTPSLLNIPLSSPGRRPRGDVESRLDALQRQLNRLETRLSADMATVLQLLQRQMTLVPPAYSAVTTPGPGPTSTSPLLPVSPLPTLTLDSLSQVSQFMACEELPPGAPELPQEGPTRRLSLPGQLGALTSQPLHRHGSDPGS
Chain of hERG (Q12809 whole entry): as above
Chain of Vascular endothelial growth factor receptor 2 (P35918 whole entry): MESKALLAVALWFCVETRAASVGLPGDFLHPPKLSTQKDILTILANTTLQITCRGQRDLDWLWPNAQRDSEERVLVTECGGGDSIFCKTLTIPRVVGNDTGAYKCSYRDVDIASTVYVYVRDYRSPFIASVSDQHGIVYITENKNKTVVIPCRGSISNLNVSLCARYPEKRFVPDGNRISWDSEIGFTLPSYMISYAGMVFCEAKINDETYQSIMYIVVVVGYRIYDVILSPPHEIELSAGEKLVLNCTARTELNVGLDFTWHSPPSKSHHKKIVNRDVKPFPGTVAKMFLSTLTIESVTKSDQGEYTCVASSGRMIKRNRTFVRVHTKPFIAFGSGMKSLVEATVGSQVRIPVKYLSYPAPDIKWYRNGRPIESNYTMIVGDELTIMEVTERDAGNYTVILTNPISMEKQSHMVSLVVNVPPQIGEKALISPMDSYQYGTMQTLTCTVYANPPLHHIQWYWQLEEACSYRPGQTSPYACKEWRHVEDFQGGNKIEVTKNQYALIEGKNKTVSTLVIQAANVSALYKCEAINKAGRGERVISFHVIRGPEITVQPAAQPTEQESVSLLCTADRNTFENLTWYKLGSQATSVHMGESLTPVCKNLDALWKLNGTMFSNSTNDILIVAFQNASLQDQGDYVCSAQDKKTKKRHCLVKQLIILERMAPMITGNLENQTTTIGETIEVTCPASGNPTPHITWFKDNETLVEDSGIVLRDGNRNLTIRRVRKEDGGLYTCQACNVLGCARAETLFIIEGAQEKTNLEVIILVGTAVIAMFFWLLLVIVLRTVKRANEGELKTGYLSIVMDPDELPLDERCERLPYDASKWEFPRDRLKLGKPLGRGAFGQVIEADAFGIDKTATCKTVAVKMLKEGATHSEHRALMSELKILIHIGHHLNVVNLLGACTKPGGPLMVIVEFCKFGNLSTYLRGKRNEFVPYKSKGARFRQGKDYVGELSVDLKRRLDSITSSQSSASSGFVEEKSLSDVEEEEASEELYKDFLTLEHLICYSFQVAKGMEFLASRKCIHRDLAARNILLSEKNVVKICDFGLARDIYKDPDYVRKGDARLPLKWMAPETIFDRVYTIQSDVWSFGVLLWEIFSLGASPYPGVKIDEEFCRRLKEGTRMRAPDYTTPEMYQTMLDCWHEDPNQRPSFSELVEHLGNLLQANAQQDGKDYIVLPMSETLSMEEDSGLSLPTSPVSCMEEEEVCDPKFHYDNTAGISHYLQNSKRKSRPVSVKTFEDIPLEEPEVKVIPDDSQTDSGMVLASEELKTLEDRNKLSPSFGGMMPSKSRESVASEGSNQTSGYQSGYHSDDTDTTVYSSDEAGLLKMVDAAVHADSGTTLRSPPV

Turning to `Cc1cc2c(F)c(Oc3ncnn4cc(OCCCS(C)(=O)=O)c(C)c34)ccc2[nH]1`, the AUC (in general, concentration integrated over time) at 4 h in data set [1] worked out at 185 µM·h. Moreover, the IC50 – broadly, the concentration needed to halve the response being measured – is 17 µM on Cytochrome P450 3A4 and 20 µM in [3]. The Cmax – broadly, the maximum level reached in the sampled fluid or tissue – in [2] amounted to 57 µM.
Consider `Cc1cc2c(F)c(Oc3ncnn4cc(O)c(C)c34)ccc2[nH]1`, for which the AUC at 4 h in [1] stood at 0.2 µM·h. The same molecule returned a peak concentration (Cmax) in data set [2] of 0.2 µM.
In the case of `Cc1cc2c(F)c(Oc3ncnn4cc(OCCCN5CCCC5)c(C)c34)ccc2[nH]1`, the AUC at 4 h in data set [1] was found to be 20.5 µM·h. Also, the inhibition (in general, the drop in the measured response relative to a control, in per cent) at 1 µM against hERG was 66%. The molecule also gave a Cmax in data set [2] of 5.9 µM.
As to `Cc1cc2c(F)c(Oc3ncnn4cc(OC[C@H](C)O)c(C)c34)ccc2[nH]1`, the AUC at 4 h in data set [1] amounted to 146 µM·h. Moreover, in data set [2], the Cmax came out at 56 µM.
Molecule `Cc1cc2c(F)c(Oc3ncnn4cc(OCCCN5CCCCC5)c(C)c34)ccc2[nH]1` showed an exposure (AUC) at 4 h in data set [1] of 14 µM·h. In addition, on hERG, the inhibition at 1 µM amounted to 70%. This molecule showed an IC50 on Cytochrome P450 3A4 of 1 µM. In addition, the Cmax in data set [2] stood at 4.2 µM.
Turning to `Cc1cc2c(F)c(Oc3ncnn4cc(OCCN5CCC(O)C5)c(C)c34)ccc2[nH]1` (single isomer, unassigned), the AUC at 4 h in data set [1] came to 9.9 µM·h. Besides, the inhibition at 1 µM against hERG turned out to be 38%. Further, the peak level in data set [2] (Cmax) was 3 µM.
With `Cc1cc2c(F)c(Oc3ncnn4cc(OC[C@@H](C)O)c(C)c34)ccc2[nH]1` [BRIVANIB], the Cmax worked out at 2.05 µM in [4]; 1.71 µM in [15]; 0.55 µM in data set [21]; 41 µM in [2]; 6.4 µM in data set [23]. The Activity in the data set with H3396 [5] was 97%; in the data set with H3396 [20] it was 85%. Moreover, the figures for the half-life in data set [6] and in data set [16] were 3.6 h and 2.7 h, respectively. The AUC at 4 h in data set [1] came to 136 µM·h. The bioavailability (usually dose-corrected exposure relative to a reference, in per cent) in data set [7] turned out to be 88%. Moreover, in [8], the clearance (usually the rate of elimination divided by the concentration) amounted to 9.3 mL/min/kg. Moreover, the AUC at 24 h in data set [9] was found to be 49 µM·h; in data set [10], 7.61 µM·h; in data set [12] it was 3.35 µM·h; in [13], 13.4 µM·h; in data set [17] it was 224 µM·h; in data set [22], 8.43 µM·h. For the same molecule, in data set [11], the MRT (as a rule, the average time that molecules of a dose stay in the body) was found to be 3.6 h. In addition, the Tmax (in general, the time at which the peak concentration occurs) in [14] is 1 h. Further, the Vd in data set [18] is 2 L/kg. Further, the half-inhibitory concentration (IC50) stood at 0.089 µM in data set [19] and 18 µM in data set [3]. For the same molecule, in [19], affinity was put at a Ki of 0.028 µM.
`Cc1cc2c(F)c(Oc3ncnn4cc(OCCC5CCN(C)CC5)c(C)c34)ccc2[nH]1`: the area under the curve (AUC) at 4 h in data set [1] stood at 2.2 µM·h. Further, the IC50 against Cytochrome P450 3A4 stood at 0.7 µM. The Cmax in data set [2] was 0.7 µM.
Molecule `Cc1cc2c(F)c(Oc3ncnn4cc(OCCCNS(C)(=O)=O)c(C)c34)ccc2[nH]1` registered an AUC at 4 h in data set [1] of 96 µM·h. The same molecule displayed an IC50 against Cytochrome P450 3A4 of 1 µM. Besides, the Cmax in data set [2] was 27 µM.
`COC[C@@H](O)COc1cn2ncnc(Oc3ccc4[nH]c(C)cc4c3F)c2c1C` returned an AUC at 4 h in data set [1] of 128 µM·h. Besides, the values for the half-maximal inhibitory concentration (IC50) (against Cytochrome P450 3A4; in data set [3]) were 1 µM and 18 µM, respectively. The same molecule displayed a Cmax in data set [2] of 41 µM.
